Source: patent publication US11109593B2, “Isoxazolin-5-one derivative and herbicide containing same as active ingredient” (HOKKO CHEMICAL INDUSTRY CO., LTD., priority 2017, dated 2021)

How the values were obtained:
Type in all cases: in vivo
Echinochloa crus-galli [1] = assay: Test Example 1: herbicidal effect test by treatment of rice paddy soil (immediately after seeding); conditions: 120 g/10a active ingredient, dry weight vs untreated area, 14 days after treatment
Summary of the method: (§1)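 Flooded paddy pot test in a glass greenhouse: emulsion diluted in water, dropped at 120 g a.i. per 10 ares just after sowing, water depth kept about 3 cm. Dry-weight reduction relative to untreated plants is scored at 14 days.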

Scirpus juncoides [2] = assay: as above; conditions: 120 g/10a active ingredient, dry weight vs untreated area, 14 days after treatment
Summary of the method: as §1

[3] = system: broad leaf weeds (Lindernia pyxidaria and Monochoria vaginalis); assay: as above; conditions: 120 g/10a active ingredient, dry weight vs untreated area, 14 days after treatment
Summary of the method: as §1

Echinochloa crus-galli [4] = assay: Test Example 2: herbicidal effect test by treatment during growing period in paddy rice cultivation (seven days after seeding); conditions: 120 g/10a active ingredient, assessed 14 days after treatment, dry weight vs untreated area
Summary of the method: (§2)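 Herbicidal rate = (1 − treated/untreated mean dry weight) × 100, scored 14 days after application, two replicates per rate. Treatment: diluted emulsion dropped onto paddy water seven days after sowing, 120 g active ingredient per 10 ares, in a glass greenhouse.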

Scirpus juncoides [5] = assay: as above; conditions: 120 g/10a active ingredient, assessed 14 days after treatment, dry weight vs untreated area
Summary of the method: as §2

[6] = system: broad leaf weeds (Lindernia pyxidaria and Monochoria vaginalis); assay: as above; conditions: 120 g/10a active ingredient, assessed 14 days after treatment, dry weight vs untreated area
Summary of the method: as §2

Amaranthus viridis [7] = assay: Test Example 3: herbicidal effect test by treatment of dry field farming soil (one day after seeding); conditions: 120 g/10a active ingredient, evaluated 14 days after treatment
Summary of the method: (§3)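 Seeds (20 each) mixed into top 1 cm of alluvium in pots, surface pressed. One day later, diluted emulsion sprayed onto soil, 100 L/10 a, 120 g a.i./10 a. Dry weight at 14 d vs untreated gave % herbicidal rate; n=2.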

Chenopodium album [8] = assay: as above; conditions: 120 g/10a active ingredient, evaluated 14 days after treatment
Summary of the method: as §3

Echinochloa crus-galli [9] = assay: as above; conditions: 120 g/10a active ingredient, evaluated 14 days after treatment
Summary of the method: as §3

southern crabgrass [10] = assay: as above; conditions: 120 g/10a active ingredient, evaluated 14 days after treatment
Summary of the method: as §3

Amaranthus viridis [11] = assay: Test Example 4: herbicidal effect test by treatment of leave and stem in dry field farming (seven days after seeding); conditions: 120 g/10a active ingredient; emulsion sprayed seven days after seeding; evaluated 14 days after treatment
Summary of the method: (§4)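 Duplicate pots were scored 14 days post-spray by dry weight, herbicidal rate = {1 − treated/untreated average dry weight} × 100. The water-diluted emulsion, equivalent to 120 g active ingredient per 10 ares in 100 L, was applied seven days after sowing 20 seeds each into the upper 1 cm of alluvial soil.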

Chenopodium album [12] = assay: as above; conditions: 120 g/10a active ingredient; emulsion sprayed seven days after seeding; evaluated 14 days after treatment
Summary of the method: as §4

Echinochloa crus-galli [13] = assay: as above; conditions: 120 g/10a active ingredient; emulsion sprayed seven days after seeding; evaluated 14 days after treatment
Summary of the method: as §4

southern crabgrass [14] = assay: as above; conditions: 120 g/10a active ingredient; emulsion sprayed seven days after seeding; evaluated 14 days after treatment
Summary of the method: as §4

SMILES	Herbicidal rate (%) Echinochloa crus-galli (Echinochloa crus-galli [1])	Herbicidal rate (%) Scirpus juncoides (Scirpus juncoides [2])	Herbicidal rate (%) Lindernia pyxidaria [3]	Herbicidal rate (%) Monochoria vaginalis [3]	Herbicidal rate (%) Echinochloa crus-galli (Echinochloa crus-galli [4])	Herbicidal rate (%) Scirpus juncoides (Scirpus juncoides [5])	Herbicidal rate (%) Lindernia pyxidaria [6]	Herbicidal rate (%) Monochoria vaginalis [6]	herbicidal rate, Amaranthus viridis (Amaranthus viridis [7])	herbicidal rate, Chenopodium album (Chenopodium album [8])	herbicidal rate, Echinochloa crus-galli (Echinochloa crus-galli [9])	herbicidal rate, southern crabgrass (southern crabgrass [10])	herbicidal effect (herbicidal rate), Amaranthus viridis (Amaranthus viridis [11])	herbicidal effect (herbicidal rate), Chenopodium album (Chenopodium album [12])	herbicidal effect (herbicidal rate), Echinochloa crus-galli (Echinochloa crus-galli [13])	herbicidal effect (herbicidal rate), southern crabgrass (southern crabgrass [14])
Cc1c(Cc2ccccc2NS(=O)(=O)C(F)(F)F)c(=O)on1CC1(C)CC1 [Compound 1-145]	100%	100%	100%	100%	90%	80%	60%	80%	40%	40%	90%	80%	0%	40%	90%	50%
Cc1c(Cc2ccccc2NS(=O)(=O)C(F)(F)F)c(=O)on1CC1CCCCC1 [Compound 1-146]	100%	100%	100%	100%	100%	90%	70%	90%	90%	90%	100%	100%	50%	40%	80%	40%
COCCn1oc(=O)c(Cc2ccccc2NS(=O)(=O)C(F)(F)F)c1C [Compound 1-148]	90%	100%	100%	90%	90%	90%	60%	80%	80%	80%	100%	100%	40%	40%	90%	80%
Cc1c(Cc2ccccc2NS(=O)(=O)C(F)(F)F)c(=O)on1Cc1ccccc1 [Compound 1-180]	90%	90%	90%	90%	70%	90%	80%	90%	30%	30%	80%	80%	0%	40%	50%	50%
